Data: patent US7476380B2, “Methods for treating illnesses of the tracheo-bronchial tract, especially chronic obstructive pulmonary disease (COPD)” (GSE-Forschungszentrum fur Umwelt und Gesundheit GmbH, priority 2000, dated 2009)

Columns and labels:
MMP-9 [1] = assay: MMP-9 in culture supernatant of alveolar macrophages (BAL cells), ELISA; assay type: cell-based; conditions: human alveolar macrophages; for MMP-9 expression: 5 μM final, day 3 (day 4 the same), culture supernatant
Method: (§1) For this purpose, human alveolar macrophages (AMs) were obtained via bronchial lavage. The AMs were seeded into Mono Mac 6 medium+10% FCS onto a 24 well “low attachment” plate (Costar) using 1×10^6 cells in a volume of 1 ml per each sample. Additions of vitamin A liposomes or of the pure substances, respectively, were carried out. Cells for RT-PCR or culture supernatant for protein determinations by means of ELISA, respectively, were harvested from parallel samples each on day 1, day 3, and day 4. Specifically, the following samples were prepared: • β=control sample, AMs in medium only • Lipleer=empty liposomes • LipVitA=liposomes containing vitamin A (retinoic acid, Sigma R-2625) 5 μM final • VitA=pure vitamin A (retinoic acid, Sigma R-2625) 5 μM final • LipPalm=liposomes containing all-trans retinol palmitate (Sigma R-3375) 3 μM final • Palmitat=all-trans retinol palmitate (Sigma R-3375) 3 μM final
(§2) The culture supernatants were monitored for MMP-9 and TMP-1 content using commercial ELISA kits (Amersham Pharmacia). In each case the numerals refer to ng/ml culture supernatant based on 1×10^6 cells.
(§3) • RPMI 1640 (Biochrom # F1415, Berlin), L-glutamine 2 mM (Gibco # 25030-024), penicillin 200 U/ml, streptomycin 200 μg/ml (Gibco # 15140-114), non-essential amino acids (NEAA) 1-2x (Gibco # 11140-35), OPI supplement (contains oxalacetate, Na pyruvate and insulin) 10 ml per 1 liter (Sigma # O-5003). Following filtration through a Gabro ultrafilter U 2000 (Martinsried, Germany) to remove LPS addition of 10% FCS, LPS tested. • Costar low attachment 24 well plates # 3473 (Bodenheim, Germany) 1×10^6 BAL cells (=cells obtained by brocho-alveolar lavage containing alveolar macrophages in an amount of about 80%) or 1.5×10^6 PBMCs (=peripheral blood mononuclear cells isolated via LymphoPrep gradient (Nycomed, Norway)), respectively, in a volume of 1 ml were used per sample. Pretreat the 24 well low attachment cell culture plate according to the manufacturer's instructions. For this purpose, fill the respective wells with 1 ml of medium and incubate for 20 min at 37° C. in an incubator. Afterwards remove the medium and replace by cell suspension. Add the liposomes loaded with vitamin A in a final concentration of 5×10^−6 M. Prepare parallel samples with pure vitamin A and empty liposomes as controls. For the measurement of MMP-9 and TIMP-1 in the culture supernatant and for determination of mRNA expression incubate the cells in an incubator for three days at 37° C. Afterwards resuspend the cells carefully and first remove 2×10^4 cells per PCR lysate for lysis in 200 μl of RNAclean (AGS, Heidelberg, Germany)in an Eppendorf reaction vial. Store these PCR lysates at −20° C. until further use. Transfer the remaining cell suspension into an Eppendorf vial and centrifuge for 5 min at 14,000×g. Remove the supernatant, transfer into a fresh vial and store at −80° C. until measurement. Summary of the Samples: • 1. BAL cells or PBMCs, respectively without any addition • 2. BAL cells or PBMCs, respectively + empty liposomes • 3. BAL cells or PBMCs, respectively + liposomes vitA 5 μM final • 4. BAL cells or PBMCs, respectively pure vitA 5 μM final Determinations of MMP-9 and TIMP-1 on the Protein Level by ELISA
(§4) For the measurement of MMP-9 and TIMP-1 in cell culture supernatants commercially available ELISA kits of Amersham Pharmacia Biotech company (Freiburg, Germany) are used. […]

metalloproteases = conditions: rat osteoblasts; Overall 1995; cited from earlier work
TIMP-1 [2] = assay: TIMP-1 expression in blood monocytes (PBMCs); assay type: cell-based, human
Method: as §3, with “Afterwards resuspend the cells carefully and first remove 2×10^4 cells per PCR lysate for lysis in 200 μl of RNAclean (AGS, Heidelberg, Germany)in an Eppendorf reaction vial. Store these PCR lysates at −20° C. until further use. Transfer the remaining cell suspension into an Eppendorf vial and centrifuge for 5 min at 14,000×g. Remove the supernatant, transfer into a fresh vial and store at −80° C. until measurement. Summary of the Samples: • 1. BAL cells or PBMCs, respectively without any addition • 2. BAL cells or PBMCs, respectively + empty liposomes • 3. BAL cells or PBMCs, respectively + liposomes vitA 5 μM final • 4. BAL cells or PBMCs, respectively pure vitA 5 μM final Determinations of MMP-9 and TIMP-1 on the Protein Level by ELISA” left out

[3] = system: enzymes having gelatinase activities; conditions: Park and Kim, Mol. Cells 1999; cited from earlier work
MMP-9 [4] = assay: MMP-9 expression in blood monocytes (PBMCs); assay type: cell-based, human
Method: as §3, with “Afterwards resuspend the cells carefully and first remove 2×10^4 cells per PCR lysate for lysis in 200 μl of RNAclean (AGS, Heidelberg, Germany)in an Eppendorf reaction vial. Store these PCR lysates at −20° C. until further use. Transfer the remaining cell suspension into an Eppendorf vial and centrifuge for 5 min at 14,000×g. Remove the supernatant, transfer into a fresh vial and store at −80° C. until measurement. Summary of the Samples: • 1. BAL cells or PBMCs, respectively without any addition • 2. BAL cells or PBMCs, respectively + empty liposomes • 3. BAL cells or PBMCs, respectively + liposomes vitA 5 μM final • 4. BAL cells or PBMCs, respectively pure vitA 5 μM final Determinations of MMP-9 and TIMP-1 on the Protein Level by ELISA” left out

TIMP-1 [5] = assay: TIMP-1 in culture supernatant of alveolar macrophages (BAL cells), ELISA; assay type: cell-based; conditions: human alveolar macrophages; for TIMP-1 expression: 5 μM final, day 3 (day 4 the same), culture supernatant
Method: as §1, §2, §3, §4

TMP-1 = conditions: rat osteoblasts, depending on the dose; Overall 1995; cited from earlier work
TIMP = conditions: Heath et al. 1990; cited from earlier work
MMP-9/TIMP-1 = MMP-9/TIMP-1 ratio of alveolar macrophages (BAL cells); assay type: cell-based, human; conditions: day 3
Description: There is increasing evidence that disorders in the protease/protease inhibitor equilibrium are the cause underlying the pathogenesis of chronic lung diseases. […] This is particularly true for patients suffering from chronic obstructive bronchitis (COPD). Among the MMPs in COPD, it is particularly the secretion of MMP-9 metalloprotease which is increased in the airways and alveoles and can no longer be completely neutralized by its natural antagonist TIMP-1 (tissue inhibitor of metalloprotease). […] An important criterion to determine the degree of the disturbance of the protease/antiprotease equilibrium is the proteinase-to-inhibitor ratio: MMP-9/TIMP-1.
For this purpose, human alveolar macrophages (AMs) were obtained via bronchial lavage. The AMs were seeded into Mono Mac 6 medium+10% FCS onto a 24 well “low attachment” plate (Costar) using 1×10^6 cells in a volume of 1 ml per each sample. Additions of vitamin A liposomes or of the pure substances, respectively, were carried out. Cells for RT-PCR or culture supernatant for protein determinations by means of ELISA, respectively, were harvested from parallel samples each on day 1, day 3, and day 4. […]
The culture supernatants were monitored for MMP-9 and TMP-1 content using commercial ELISA kits (Amersham Pharmacia). […]

[6] = day 1 following vitamin A addition

Molecule | MMP-9 expression (MMP-9 [1]) | MMP-9 expression (MMP-9 [1]; listed as retinoic acid) | expression of metalloproteases (metalloproteases) | TIMP-1 inhibitor expression (TIMP-1 [2]) | activity of enzymes having gelatinase activities (metalloproteases) [3] | expression of MMP-9 metalloprotease (MMP-9 [4]) | TIMP-1 expression (TIMP-1 [5]) | TIMP-1 expression (TIMP-1 [5]; listed as retinoic acid) | mRNA levels of TMP-1 (TMP-1) | TIMP levels (TIMP) | MMP-9 on the protein level, day 1 (MMP-9 [1]; [6]) | TIMP-1 on the protein level, day 1 (TIMP-1 [5]; [6]) | effect on the MMP-9/TIMP-1 ratio (MMP-9/TIMP-1)
CC1=C(/C=C/C(C)=C/C=C/C(C)=C/C(=O)O)C(C)(C)CCC1 [free vitamin A, all-trans retinoic acid] | strongly reduced | clear inhibition | increases | stimulation | increased | clear inhibition | increase | stimulation | clearly reduced |  |  |  | 
CC1=C(/C=C/C(C)=C/C=C/C(C)=C/CO)C(C)(C)CCC1 [retinol] | clear inhibition |  |  | stimulation |  | clear inhibition | stimulation |  |  | 0 |  |  | 
vitamin A | significantly inhibits |  |  |  |  |  | significantly stimulates |  |  |  | no effect | no effect | drastic effect
